Data reported in US9284297B2, “Halofuginone analogs for inhibition of tRNA synthetases and uses thereof” (President and Fellows of Harvard College, priority 2008, dated 2016).

Legend:
[1] = test system: eIF2α phosphorylation and AAR-associated transcripts (Asns, Gpt2, eIF4Ebp1) in splenocytes; experiment: AAR activation in splenocytes of HF-injected mice; type: in vivo; settings: i.p. 2.5 mg HF; spleens harvested 6 hours post injection
Protocol: FIG. 18F, left panel, depicts western blot analysis of protein from cells of wild-type mice injected i.p. with vehicle (DMSO) or 2.5 mg HF. Spleens were harvested 6 hours post injection, red blood cells were removed by NH4Cl lysis buffer and immunoblotting for phosphorylated or total eIF2a was performed on whole cell extracts. FIG. 20F, right panel is a graph depicting levels of AAR-associated gene expression (Asns, Gpt2, eIF4Ebp1) analyzed by quantitative real-time PCR using cDNA from splenocytes of mice treated with DMSO or HF as above. Expression of AAR-associated transcripts were normalized to Hprt levels and data are presented as mean relative expression from duplicate samples±SD. All data represent 2-3 similar experiments.
HF-mediated protection from adjuvant-driven EAE was accompanied by a reduction in T cell-derived IL-17-expression, both in peripheral lymph nodes prior to disease onset and in CNS tissue during active disease (FIG. 18E), as well as an overall reduction in CD4^+ T cell infiltrates into the CNS (FIG. 19).

[2] = test system: TGFβ-induced Smad phosphorylation and lymphocyte responses to TGFβ; experiment: TGFβ signaling in T and B cells; type: cell-based, murine; settings: low dose HF; 10 μM SB-431542
Protocol: FIG. 10. […] FIG. 10A is a set of FACS analyses of CD4^+ CD25^− T cells activated in Th1 or Th2 polarizing conditions, either in the presence or absence of TGFβ. DMSO, 10 nM HF, 10 nM MAZ1310, or 10 μM SB-431542 added as indicated at the time of activation. Intracellular cytokine staining was performed on expanded T cells on day 5.
FIG. 10D depicts western blot analyses of purified CD4^+ CD25^− T cells treated with DMSO, 40 nM MAZ1310, titrating concentrations of HF (2.5-40 nM) or 10 μM SB-431542 for 30 minutes in complete medium supplemented with 0.1% fetal calf serum. T cells were then activated in the presence or absence of 3 ng/ml TGFβ. Whole cell extracts were prepared after 1 hour of stimulation and western blot analyses were performed using the indicated antibodies.
Th17 differentiation is synergistically regulated by TGFβ and the pro-inflammatory cytokines IL-6 and IL-21. […] Since STAT3 is the major transducer of IL-6 and IL-21 signaling, the kinetics of STAT3 phosphorylation in HF-treated T cells were examined.
Whole cell lysates were generated from T cells activated for the indicated times. For STAT3 and Smad2/3 western blots cells were harvested, washed in PBS and lysed in 50 mM Tris, pH 7.4, 0.1% SDS, 1% Triton-X100, 140 mM NaCl, 1 mM EDTA, 1 mM EGTA supplemented with protease inhibitors tablets (Roche, Germany), 1 mM NaF and 1 mM Na3VO4. […]

SMILES: O=C(CC1NCCCC1O)Cn1cnc2cc(Br)c(Cl)cc2c1=O (centres unmarked) [Compound 1, 7-bromo-6-chloro-3-[3-(3-hydroxy-2-piperidinyl)-2-oxopropyl]-4(3H)-quinazolinone]
- eIF2α phosphorylation and AAR-associated transcripts in splenocytes ex vivo [1]: increased eIF2α phosphorylation and expression of AAR-associated transcripts
- effect on TGFβ-induced Smad phosphorylation and other lymphocyte responses to TGFβ [2]: inhibited neither TGFβ-induced Smad phosphorylation nor a variety of other lymphocyte responses to TGFβ
